# Source: patent US11597909B2, “Method for the formation of renal tubules” (LEIBNIZ-INSTITUT FÜR POLYMER-FORSCHUNG DRESDEN E.V., priority 2016, dated 2023)
# What was measured:
# [1] = system: tubule organoids from HK-2 cells; assay: Apoptosis by caspase-3 immunocytochemistry in tubule organoids; type: cell-based, human; conditions: incubation with cisplatin, HK-2 tubule organoids
# Excerpt: (§1) The present invention can be used as an assay for nephrotoxicity.
# [2] = system: tubule organoids from HK-2 cells; assay: Expression of kidney injury biomarker KIM-1 in tubule structures; type: cell-based, human; conditions: incubation with cisplatin, HK-2 tubule structures
# Excerpt: as §1
smiles,measurement,setting,value
N.N.[Cl][Pt][Cl] [cisplatin],"apoptosis (cell death), caspase-3 immunocytochemistry",[1],increase in apoptosis
same,expression of kidney injury biomarker KIM 1,[2],expressed the injury-indicating kidney biomarker KIM 1
